Measured values: patent publication US9073940B2, “Tricyclic pyrazol amine derivatives” (MERCK SERONO SA, priority 2009, dated 2015)
pIC50: −log10 of the molar value.

system: 4 PI3K isoforms (Human recombinant GST-PI3K); experiment: PI3K scintillation proximity assay, best IC50 obtained with the four isoforms (alpha, beta, delta, gamma); format: biochemical; conditions: best IC50 obtained with the four isoforms of PI3K; read-out: Best potency measured on the 4 PI3K isoforms

| Structure (SMILES) | pIC50 |
| --- | --- |
| COc1ccc(C(=O)Cn2nc(C(=O)N3CCOCC3)c3c2-c2ccccc2S(=O)(=O)C3)cc1 [Example 317] | 4.84 |
| CC1CC(C)CC(n2nc(C(=O)N3CCOCC3)c3c2-c2ccccc2S(=O)(=O)C3)C1 (centres unmarked) [Example 321] | 5.10 |
| CC(=O)Nc1cccc2c1S(=O)(=O)Cc1c(C(=O)N3CCOCC3)nn(-c3ccccc3)c1-2 [Example 322] | 5.01 |
| CCCCNc1ccc2c(c1)S(=O)(=O)Cc1c(C(=O)N3CCOCC3)nn(-c3ccccc3)c1-2 [Example 326] | 5.01 |
| COCCNc1ccc2c(c1)S(=O)(=O)Cc1c(C(=O)N3CCOCC3)nn(-c3ccccc3)c1-2 [Example 327] | 5.18 |
| O=C(c1nn(-c2ccc(-c3ccccc3)cc2)c2c1CS(=O)(=O)c1ccccc1-2)N1CCOCC1 [Example 328] | 4.99 |
| COCCOc1cccc(-n2nc(C(=O)N3CCOCC3)c3c2-c2ccccc2S(=O)(=O)C3)c1 [Example 341, 1-[3-(2-Methoxyethoxy)phenyl]-3-(morpholin-4-ylcarbonyl)-1,4-dihydrothiochromeno[4,3-c]pyrazole 5,5-dioxide] | 6.14 |
| O=C(c1nn(C2CCOC2)c2c1CS(=O)(=O)c1ccccc1-2)N1CCOCC1 (centres unmarked) [Example 342, 3-(Morpholin-4-ylcarbonyl)-1-(tetrahydrofuran-3-yl)-1,4-dihydrothiochromeno[4,3-c]pyrazole 5,5-dioxide] | 6.05 |
| CC1COCCN1Cc1ccc(-n2nc(C(=O)N3CCOCC3)c3c2-c2ccccc2S(=O)(=O)C3)cc1 (centres unmarked) [Example 357, 1-{4-[(3-Methylmorpholin-4-yl)methyl]phenyl}-3-(morpholin-4-ylcarbonyl)-1,4-dihydrothiochromeno[4,3-c]pyrazole 5,5-dioxide] | 6.74 |
| O=C(c1nn(-c2ccc(CN3CCOCC3)cc2)c2c1CS(=O)(=O)c1ccc(F)cc1-2)N1CCOCC1 [Example 392, 8-Fluoro-3-(morpholin-4-ylcarbonyl)-1-[4-(morpholin-4-ylmethyl)phenyl]-1,4-dihydrothiochromeno[4,3-c]pyrazole 5,5-dioxide] | 6.26 |
| O=C(c1nn(C2CN3CCC2CC3)c2c1CS(=O)(=O)c1ccccc1-2)N1CCOCC1 (centres unmarked) [Example 393] | 4.99 |
| O=C(c1ccoc1)N1CCC[C@H](n2nc(C(=O)N3CCOCC3)c3c2-c2ccccc2S(=O)(=O)C3)C1 [Example 396] | 6.12 |
| O=C(c1nn([C@H]2CCCN(C(=O)C3CCOCC3)C2)c2c1CS(=O)(=O)c1ccccc1-2)N1CCOCC1 [Example 397] | 5.82 |
| O=C(CC1CCOCC1)N1CCC[C@H](n2nc(C(=O)N3CCOCC3)c3c2-c2ccccc2S(=O)(=O)C3)C1 [Example 398] | 6.46 |
| O=C(CC1CCCCC1)N1CCC[C@H](n2nc(C(=O)N3CCOCC3)c3c2-c2ccccc2S(=O)(=O)C3)C1 [Example 399] | 6.13 |
| O=C(c1nn(C2CCCN(CCn3cccn3)C2)c2c1CS(=O)(=O)c1c(F)cccc1-2)N1CCOCC1 (centres unmarked) [Example 406, 6-Fluoro-3-(morpholin-4-ylcarbonyl)-1-{1-[2-(1H-pyrazol-1-yl)ethyl]piperidin-3-yl}-1,4-dihydrothiochromeno[4,3-c]pyrazole 5,5-dioxide] | 7.10 |
| O=C(c1nn(C2CCCN(CCN3CCOCC3)C2)c2c1CS(=O)(=O)c1c(F)cccc1-2)N1CCOCC1 (centres unmarked) [Example 413, 6-fluoro-3-(morpholin-4-ylcarbonyl)-1-[1-(2-morpholin-4-ylethyl)piperidin-3-yl]-1,4-dihydrothiochromeno[4,3-c]pyrazole 5,5-dioxide] | 7.80 |
| O=C(c1nn(C2CCCN(C3COC3)C2)c2c1CS(=O)(=O)c1ccccc1-2)N1CCOCC1 (centres unmarked) [Example 415, 3-(Morpholin-4-ylcarbonyl)-1-(1-oxetan-3-ylpiperidin-3-yl)-1,4-dihydrothiochromeno[4,3-c]pyrazole 5,5-dioxide] | 7.17 |
| COCCN(C)Cc1ccc(-n2nc(C(=O)N3CCOCC3)c3c2-c2ccccc2S(=O)(=O)C3)cc1 [Example 426, 2-Methoxy-N-methyl-N-{4-[3-(morpholin-4-ylcarbonyl)-5,5-dioxidothiochromeno[4,3-c]pyrazol-1(4H)-yl]benzyl}ethanamine] | 6.95 |

Results, then the compound that gave them:

| pIC50 | Structure (SMILES) |
| --- | --- |
| 4.75 | O=C(c1nn(-c2ccccc2)c2c1CS(=O)(=O)c1c(-c3ccccc3)cccc1-2)N1CCOCC1 [Example 323] |
| 4.86 | CC1COCCN1C(=O)c1nn(-c2ccccc2)c2c1CS(=O)(=O)c1ccccc1-2 (centres unmarked) [Example 338, 3-[(3-Methylmorpholin-4-yl)carbonyl]-1-phenyl-1,4-dihydrothiochromeno[4,3-c]pyrazole 5,5-dioxide] |
| 5.01 | O=C(c1nn(C2CCOCC2)c2c1C(F)S(=O)(=O)c1ccccc1-2)N1CCOCC1 (centres unmarked) [Example 316, 4-Fluoro-3-(morpholin-4-ylcarbonyl)-1-(tetrahydro-2H-pyran-4-yl)-1,4-dihydrothiochromeno[4,3-c]pyrazole 5,5-dioxide] |
| 5.04 | O=C(c1nn(-c2ccccc2)c2c1CS(=O)(=O)c1ccccc1-2)N1CCCOCC1 [Example 334, 3-(1,4-Oxazepan-4-ylcarbonyl)-1-phenyl-1,4-dihydrothiochromeno[4,3-c]pyrazole 5,5-dioxide] |
| 5.17 | O=C(c1nn(-c2cccc(-c3ncon3)c2)c2c1CS(=O)(=O)c1ccccc1-2)N1CCOCC1 [Example 324] |
| 5.19 | O=C(c1nn(-c2ccccc2)c2c1CS(=O)(=O)c1ccccc1-2)N1CCOC(CO)C1 (centres unmarked) [Example 333, {4-[(5,5-Dioxido-1-phenyl-1,4-dihydrothiochromeno[4,3-c]pyrazol-3-yl)carbonyl]morpholin-2-yl}methanol] |
| 5.28 | O=C(c1nn([C@@H]2CCCN(CCN3CCOCC3)C2)c2c1CS(=O)(=O)c1c(Cl)cccc1-2)N1CCOCC1 [Example 387] |
| 6.35 | O=C(c1nn(-c2cccc(OCCn3cccn3)c2)c2c1CS(=O)(=O)c1ccccc1-2)N1CCOCC1 [Example 340, 3-(Morpholin-4-ylcarbonyl)-1-{3-[2-(1H-pyrazol-1-yl)ethoxy]phenyl}-1,4-dihydrothiochromeno[4,3-c]pyrazole 5,5-dioxide] |
| 6.45 | O=C(c1nn(C2CCOC2)c2c1CS(=O)(=O)c1c(F)cccc1-2)N1CCOCC1 (centres unmarked) [Example 365, 6-Fluoro-3-(morpholin-4-ylcarbonyl)-1-(tetrahydrofuran-3-yl)-1,4-dihydrothiochromeno[4,3-c]pyrazole 5,5-dioxide] |
| 6.63 | O=C(c1nn(C2CN(CCN3CCOCC3)C2)c2c1CS(=O)(=O)c1ccccc1-2)N1CCOCC1 [Example 407, 3-(Morpholin-4-ylcarbonyl)-1-[1-(2-morpholin-4-ylethyl)azetidin-3-yl]-1,4-dihydrothiochromeno[4,3-c]pyrazole 5,5-dioxide] |
| 6.64 | O=C(c1nn(-c2ccc(CN3CC(F)C3)cc2)c2c1CS(=O)(=O)c1ccccc1-2)N1CCOCC1 [Example 430, 1-{4-[(3-Fluoroazetidin-1-yl)methyl]phenyl}-3-(morpholin-4-ylcarbonyl)-1,4-dihydrothiochromeno[4,3-c]pyrazole 5,5-dioxide] |
| 6.75 | O=C(c1nn(-c2cccc(OCCn3ccnc3)c2)c2c1CS(=O)(=O)c1ccccc1-2)N1CCOCC1 [Example 360, 1-{3-[2-(1H-Imidazol-1-yl)ethoxy]phenyl}-3-(morpholin-4-ylcarbonyl)-1,4-dihydrothiochromeno[4,3-c]pyrazole 5,5-dioxide] |
| 7.02 | O=C(c1nn(C2CN(CCC3CCOCC3)C2)c2c1CS(=O)(=O)c1ccccc1-2)N1CCOCC1 [Example 405, 3-(Morpholin-4-ylcarbonyl)-1-{1-[2-(tetrahydro-2H-pyran-4-yl)ethyl]azetidin-3-yl}-1,4-dihydrothiochromeno[4,3-c]pyrazole 5,5-dioxide] |
| 7.21 | O=C(c1nn(C2CCCN(CCC3CCOCC3)C2)c2c1CS(=O)(=O)c1ncccc1-2)N1CCOCC1 (centres unmarked) [Example 408] |
| 7.42 | O=C(c1nn(C2CCCN(CCN3CC(F)(F)C3)C2)c2c1CS(=O)(=O)c1c(F)cccc1-2)N1CCOCC1 (centres unmarked) [Example 414, 1-{1-[2-(3,3-Difluoroazetidin-1-yl)ethyl]piperidin-3-yl}-6-fluoro-3-(morpholin-4-ylcarbonyl)-1,4-dihydrothiochromeno[4,3-c]pyrazole 5,5-dioxide] |
| 7.68 | O=C(c1nn(C2CCCN(CC3CCOC3)C2)c2c1CS(=O)(=O)c1c(F)cccc1-2)N1CCOCC1 (centres unmarked) [Example 404, 6-Fluoro-3-(morpholin-4-ylcarbonyl)-1-[1-(tetrahydrofuran-3-ylmethyl)piperidin-3-yl]-1,4-dihydrothiochromeno[4,3-c]pyrazole 5,5-dioxide] |

same assay, conditions: inhibition at 20 μM

| Structure (SMILES) | Best potency measured on the 4 PI3K isoforms, % inh @20 μM [% inh @20 μM] |
| --- | --- |
| O=C(Nc1cccc2c1S(=O)(=O)Cc1c(C(=O)N3CCOCC3)nn(-c3ccccc3)c1-2)c1ccccc1 [Example 318] | 10 |
| O=C(c1nn(-c2ccccc2)c2c1CS(=O)(=O)c1c(CN3CCCCC3)cccc1-2)N1CCOCC1 [Example 319] | 33 |
| CN(C)Cc1cccc2c1S(=O)(=O)Cc1c(C(=O)N3CCOCC3)nn(-c3ccccc3)c1-2 [Example 320] | 32 |
| O=C(c1nn(-c2cccc(-c3nn[nH]n3)c2)c2c1CS(=O)(=O)c1ccccc1-2)N1CCOCC1 [Example 325] | 19 |
| O=C(c1nn(-c2ccccc2)c2c1CS(=O)(=O)c1cc(CN3CCOCC3)ccc1-2)N1CCOCC1 [Example 329] | 23 |
| O=C(c1nn(-c2ccccc2)c2c1C[S+]([O-])c1ccccc1-2)N1CCOCC1 (centres unmarked) [Example 330, 3-(Morpholin-4-ylcarbonyl)-1-phenyl-1,4-dihydrothiochromeno[4,3-c]pyrazole 5-oxide] | 18 |
| CC(C)CC1COCCN1C(=O)c1nn(-c2ccccc2)c2c1CS(=O)(=O)c1ccccc1-2 (centres unmarked) [Example 332] | 15 |
| O=C(c1nn(-c2ccccc2)c2c1CS(=O)(=O)c1ccccc1-2)N1CCOc2ccccc21 [Example 335] | 13 |
| CC1CN(C(=O)c2nn(-c3ccccc3)c3c2CS(=O)(=O)c2ccccc2-3)CC(C)O1 (centres unmarked) [Example 337] | 11 |
